Earlier results in publication PMC10816276 (International Journal of Molecular Sciences, 2024).

Target: T1, Mushroom tyrosinase (mTyr) (Agaricus bisporus, UniProt C7FF04)
T1 construct: purchased Sigma-Aldrich
Details: substrate L-DOPA; cited from earlier work

T1 sequence (C7FF04 1-392): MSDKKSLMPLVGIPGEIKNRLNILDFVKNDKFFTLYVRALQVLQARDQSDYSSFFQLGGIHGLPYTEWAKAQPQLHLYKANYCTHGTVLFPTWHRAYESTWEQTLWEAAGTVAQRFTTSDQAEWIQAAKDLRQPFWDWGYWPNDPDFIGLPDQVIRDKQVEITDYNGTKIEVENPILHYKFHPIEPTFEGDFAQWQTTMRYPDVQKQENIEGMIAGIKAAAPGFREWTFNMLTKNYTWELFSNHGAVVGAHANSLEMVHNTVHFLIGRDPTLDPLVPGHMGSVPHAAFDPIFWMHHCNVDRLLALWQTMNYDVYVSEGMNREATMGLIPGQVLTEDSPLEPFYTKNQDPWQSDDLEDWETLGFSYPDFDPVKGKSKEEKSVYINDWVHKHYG

OC[C@H]1O[C@@H](Oc2ccc(O)cc2)[C@H](O)[C@@H](O)[C@@H]1O [beta-arbutin, reference compound]
inhibitory effect on the diphenolase activity of mTyr: no inhibitory effect
